Results from patent US7925520B2, “Methods of predicting dose of drug and program for predicting dose of drug” (priority 2007, dated 2011).
Where “and” joins values, the source holds several entries; their conditions need not be identical. Equal entries are not always repeated. Where two headings read alike, the source gives them in different places.

Assays:
[1] = Measurement 2: migration C of drug ion under skin-absent condition (through anion exchange membrane into physiological salt solution); assay type: physicochemical; settings: for C (migration of drug ion under skin-absent condition): 6.25 mM drug solution, constant current 0.94 mA for 60 minutes, average of 3; for LogC: log of migration C, 6.25 mM, 0.94 mA, 60 minutes
Description: (§1) In some embodiments, a working side assembly 10 of the device 1 may include a working side electrode (negative electrode) 11; an electrolyte solution holding portion 12 for holding a physiological salt solution; a cation exchange membrane 13 on the front surface side of the electrolyte solution holding portion; a drug solution holding portion 14 for holding a drug solution on the front surface side of the cation exchange membrane 13; and an anion exchange membrane 15 on the front surface side of the drug solution holding portion.
(§2) In some embodiments, a non-working side assembly 20 of the device 1 may include a non-working side electrode (positive electrode) 21; an electrolyte solution holding portion 22 for holding a physiological salt solution; an anion exchange membrane 23 on the front surface side of the electrolyte solution holding portion 22; an electrolyte solution holding portion 24 for holding a physiological salt solution on the front surface side of the anion exchange membrane 23; and a cation exchange membrane 25 on the front surface side of the electrolyte solution holding portion 24. It should be noted that an ion exchange membrane CLE 04-2 manufactured by Tokuyama Co., Ltd. was used as each of the ion exchange membrane 13 and the ion exchange membrane 25, and an ion exchange membrane ALE 04-2 manufactured by Tokuyama Co., Ltd. was used as each of the ion exchange membrane 15 and the ion exchange membrane 23.
The drug solution composition of the drug solution holding portion 14, energization conditions, and the like were identical to those of Measurement 1.
The above measurement was performed 3 times for each sample, and the average value of the measurements was determined as the migration C.

[2] = Measurement 3: migration R of drug ion to liposome; assay type: physicochemical; settings: 20 mM EPC liposome and 3.125 mM drug solution 1:1 by volume; 37° C., 18 hours; average of 3
Method: 20 mM of an EPC liposome (yolk phosphatidylcholine (lecithin)/particle diameter 290 to 490 nm) and 3.125 mM of a drug solution were mixed at a volume ratio of 1:1, and the mixture was incubated at 37° C. for 18 hours. After that, the resultant was centrifuged, and the amount of a drug ion in each of the supernatant and the precipitate was measured by HPLC, whereby the amount of the drug ion (unit: nmol/cm^3) that had migrated to the EPC liposome was measured.
The above measurement was performed 3 times for each sample, and the average value of the measurements was determined as the migration R.

[3] = value from Scifinder database, cited from earlier work; for PSA: in Å2 (unit assumed)
[4] = Prediction of Log(M*/C) from measured C and R by Equation 2; set-up: species or system rat; settings: M* determined as a function of measured C and R values (Eq. 2)
[5] = Measurement 1: migration M of drug ion to skin with membrane type iontophoresis device; assay type: in vitro ADME, rat; settings: for LogM: log of migration M, 6.25 mM, 0.94 mA, 60 minutes; for LogM / M (migration of drug ion to skin): rat back skin; for M (migration of drug ion to skin): 6.25 mM drug solution, constant current 0.94 mA for 60 minutes, average of 3
Description: as §1, §2
Energization was performed in a state where a corium layer 32 was brought into contact with the physiological salt solution of the electrolyte solution holding portion 26. After energization, the skin 30 was frozen and processed.
The above measurement was performed 3 times for each sample, and the average value of the measurements was determined as the migration M.

In the case of “1-Naphtaleneacetic acid [Napthaleneacetic acid]”, the “C (migration of drug ion under skin-absent condition)” value [1] is reported as 4806 nmol/mL, the LogC [1] is reported as 3.68 and the “LogR (migration R of drug ion to liposome)” value (“LogR” for short) [2] is reported as −0.47. For the same molecule, the PSA [3] was 37 and 37.3, the “Predicted Log(M*/C)” value [4] was −1.03 and the “Log(M/C)” value [5] was −0.8.

For `O=C(O)Cc1ccccc1Nc1c(Cl)cccc1Cl` [Diclofenac], the LogC [1] was 2.86, the “Predicted Log(M*/C)” value [4] was 0.1 and the “Log(M/C)” value ([5]; from measured M and C) was 0.3. The LogM [5] was 3.16.

For `CCc1cccc2c3c([nH]c12)C(CC)(CC(=O)O)OCC3` (centres unmarked) [Etodolac], the LogC [1] was 3.41, the “Predicted Log(M*/C)” value [4] was −0.54 and the “Log(M/C)” value ([5]; from measured M and C) was −0.93. The LogM [5] was 2.48.

In the case of `O=C(O)Cc1ccc(-c2ccccc2)cc1` [Felbinac], the “C (migration of drug ion under skin-absent condition)” value [1] is reported as 3409 nmol/mL, the LogC [1] is reported as 3.53 and the “LogR” value [2] is reported as 0.27. For the same molecule, the LogD [3] was 0.83 and the LogP [3] was 3.26.

In the case of `O=C(O)Cc1c[nH]c2ccccc12` [Indoleacetic acid, 3-Indoleacetic acid], the “C (migration of drug ion under skin-absent condition)” value [1] is reported as 7822 nmol/mL, the LogC [1] is reported as 3.89 and the “LogR” value [2] is reported as −0.69. For the same molecule, the LogD [3] was −1.37 and the LogP [3] was 1.43.

For `O=C(O)CCCc1c[nH]c2ccccc12` [Indolebutylic acid, Indolebutyric acid], the “C (migration of drug ion under skin-absent condition)” value [1] was 3744 nmol/mL and 3774 nmol/mL, the LogC [1] was 3.58 and the “LogR” value [2] was −0.26. For the same molecule, the PSA [3] was 53 and 53.1, the “Predicted Log(M*/C)” value [4] was −0.87 and the “Log(M/C)” value [5] was −0.74.

For `COc1ccc2c(c1)c(CC(=O)O)c(C)n2C(=O)c1ccc(Cl)cc1` [Indomethacin], the “C (migration of drug ion under skin-absent condition)” value [1] was 2189 nmol/mL, the LogC [1] was 3.34 and the “LogR” value [2] was 0.23. For the same molecule, the LogD [3] was −0.13, the LogP [3] was 3.11 and the PSA [3] was 64. For the same molecule, the “Predicted Log(M*/C)” value [4] was −0.49, the “Log(M/C)” value ([5]; from measured M and C) was −0.87 and the LogM [5] was 2.47. For the same molecule, the “M (migration of drug ion to skin)” value [5] was 296 nmol/mL.

For `CC(C(=O)O)c1cccc(C(=O)c2ccccc2)c1` (centres unmarked) [Ketoprofen], the “C (migration of drug ion under skin-absent condition)” value [1] was 2432 nmol/mL, the LogC [1] was 3.39 and the “LogR” value [2] was −0.29. The LogD [3] was 0.33, the PSA [3] was 54 and the “Predicted Log(M*/C)” value [4] was −0.89.

With `O=C(O)c1ccccc1O` [Salicylic acid] the “C (migration of drug ion under skin-absent condition)” value [1] was 6800 nmol/mL, the LogC [1] was 3.83 and the “LogR” value [2] was −0.49. The LogD [3] was −1.08, the LogP [3] was 2.06 and the PSA [3] was 58. For the same molecule, the “Predicted Log(M*/C)” value [4] was −1.04, the “Log(M/C)” value ([5]; from measured M and C) was −0.96 and the LogM [5] was 2.87. For the same molecule, the “M (migration of drug ion to skin)” value [5] was 749 nmol/mL.
